Molecules are shown by their SMILES. Counter-ions that a name gives are not always drawn.

Broadly, the melting point is the temperature, or range, at which the solid turns liquid.

In turn, `O=C(c1cc(Cl)cc(Cl)c1)c1nc(C(F)(F)F)nc2ccsc12` [Example 10, 3,5-Dichlorophenyl 2-trifluoromethylthieno[3,2-d]pyrimidin-4-ylmethanone] returned a melting point of 147 to 149 °C.

Take `Cc1csc2c(C(=O)c3cccs3)nc(N(C)C)nc12` [Example 38, 2-Dimethylamino-7-methylthieno[3,2-d]pyrimidin-4-yl 2-thienylmethanone]: the melting point was in the range of 156 to 158 °C.

In turn, `O=C(c1ccc(Cl)cc1)c1nc(C(F)(F)F)nc2ccsc12` [Example 30, 4-Chlorophenyl 2-trifluoromethylthieno[3,2-d]pyrimidin-4-ylmethanone] had a melting point of 127 to 128 °C.

Regarding `O=C(c1cccs1)c1nc(N2CCC[C@@H]2C(=O)O)nc2ccsc12` [Example 121, (2R)-N-(4-(2-Thienylcarbonyl)thieno[3,2-d]pyrimidin-2-yl)proline], the melting point was > 131 °C (dec.).

In turn, `Cc1ccsc1C(=O)c1nc(N(C)C)nc2ccsc12` [Example 117, 2-Dimethylaminothieno[3,2-d]pyrimidin-4-yl 3-methyl-2-thienylmethanone] had a melting point of 165.1 to 165.7 °C.

For the compound `COC(=O)[C@@H]1CCCN1c1nc(C(=O)c2cccs2)c2sccc2n1` [Example 115, (2S)-N-(4-(2-Thienylcarbonyl)thieno[3,2-d]pyrimidin-2-yl)proline methyl ester], the melting point is 155.9 to 156.3 °C.

Take `CC(=O)NCCNc1nc(C(=O)c2cccs2)c2sccc2n1` [Example 90, N-(2-(4-(2-Thienylcarbonyl)thieno[3,2-d]pyrimidin-2-yl)aminoethyl)acetamide]: the melting point fell in the range of 212.2 to 212.5 °C.

The compound `O=C(c1cccs1)c1nc(N2CCCC2)nc2ccsc12` [Example 109, 2-(Pyrrolidin-1-yl)thieno[3,2-d]pyrimidin-4-yl 2-thienylmethanone] showed a melting point of 229.1 to 229.4 °C.

In the case of `Cc1cccc(C(=O)c2nc(C(F)(F)F)nc3ccsc23)c1` [Example 32, 3-Methylphenyl 2-trifluoromethylthieno[3,2-d]pyrimidin-4-ylmethanone], the melting point was 131 to 133 °C.

`CCc1nc(C(O)c2cccs2)c2sccc2n1` (stereo not drawn) [Example 36, 2-Ethyl-α-(2-thienyl)thieno[3,2-d]pyrimidine-4-methanol] yielded a melting point of 147 to 149 °C.

The compound `Cc1ccsc1C(=O)c1nc(N2CCC[C@@H]2CO)nc2ccsc12` [Example 129, (2R)-2-(2-Hydroxymethylpyrrolidin-1-yl)thieno[3,2-d]pyrimidin-4-yl 3-methyl-2-thienylmethanone] registered a melting point of 96.2 to 96.9 °C.

In turn, `COc1ccc(C(=O)c2nc(C(F)(F)F)nc3ccsc23)cc1` [Example 27, 4-Methoxyphenyl 2-trifluoromethylthieno[3,2-d]pyrimidin-4-ylmethanone] came in with a melting point of 155 to 157 °C.

Regarding `O=C(c1cccnc1)c1nc(NCCO)nc2ccsc12` [Example 106, 2-(2-Hydroxyethylamino)thieno[3,2-d]pyrimidin-4-yl 3-pyridylmethanone], the melting point was 161 to 163 °C.

`COC(=O)c1nc(C(=O)c2cccs2)c2sccc2n1` [Example 126, Methyl 4-(2-thienylcarbonyl)thieno[3,2-d]pyrimidin-2-carboxylate]: the melting point is 232.8 to 233 °C.

`NC(=O)CNc1nc(C(=O)c2cccs2)c2sccc2n1` [Example 125, (4-(2-Thienylcarbonyl)thieno[3,2-d]pyrimidin-2-ylamino)acetamide] displayed a melting point of 232.1 to 233.7 °C.

Take `Cc1ccsc1C(=O)c1nc(NCCCn2ccnc2)nc2ccsc12` [Example 132, 2-(3-(1H-imidazol-1-yl)propylamino)thieno[3,2-d]pyrimidin-4-yl 3-methyl-2-thienylmethanone]: the melting point lay within 138.1 to 138.7 °C.

As to `NCCNc1nc(C(=O)c2cccs2)c2sccc2n1` (as salt: hydrochloride) [Example 55, 2-(2-Aminoethylamino)thieno[3,2-d]pyrimidin-4-yl 2-thienylmethanone dihydrochloride], the melting point was > 190 °C (dec.).

`Cc1c(C(=O)c2nc(C(F)(F)F)nc3ccsc23)sc2ccccc12` [Example 62, 3-Methylbenzothiophene-2-yl 2-trifluoromethylthieno[3,2-d]pyrimidin-4-ylmethanone] displayed a melting point of 262 to 263 °C.

In turn, `CCOC(=O)c1nc(C(=O)c2cccs2)c2sccc2n1` [Example 122, Ethyl 4-(2-thienylcarbonyl)thieno[3,2-d]pyrimidin-2-carboxylate] yielded a melting point of 185.7 to 186.2 °C.

The compound `CN(C)CCNC(=O)c1nc(C(=O)c2cccs2)c2sccc2n1` [Example 134, N-(2-Dimethylaminoethyl)-4-(2-thienylcarbonyl)thieno[3,2-d]pyrimidin-2-carboxamide] had a melting point of 143.6 to 144.7 °C.

Regarding `O=C(c1ccc([N+](=O)[O-])cc1)c1nc(C(F)(F)F)nc2ccsc12` [Example 31, 4-Nitrophenyl 2-trifluoromethylthieno[3,2-d]pyrimidin-4-ylmethanone], the melting point was 185 to 186 °C.

For `C=CCNC(=O)NNc1nc(C(=O)c2cccs2)c2sccc2n1` [Example 131, N-Allyl-2-(4-(2-thienylcarbonyl)thieno[3,2-d]pyrimidin-2-yl)hydrazinecarboxamide], the melting point lay in the range of 252.8 to 253.3 °C.

Compound `CN(C)CC(=O)Nc1nc(C(=O)c2cccs2)c2sccc2n1` (as salt: hydrochloride) [Example 169, 2-Dimethylamino-N-(4-(2-thienylcarbonyl)thieno[3,2-d]pyrimidin-2-yl)acetamide hydrochloride] yielded a melting point of 151 °C.

`Cc1ccc(C(=O)c2nc(C(F)(F)F)nc3ccsc23)s1`: the melting point fell in the range of 161 to 163 °C.

The compound `CN(C)c1nc(C(=O)c2ccco2)c2sccc2n1` [Example 105, 2-Dimethylaminothieno[3,2-d]pyrimidin-4-yl 2-furylmethanone] showed a melting point of 210 to 212 °C.

For the compound `CC(C)(CO)Nc1nc(C(=O)c2cccs2)c2sccc2n1` [Example 119, 2-(1-Hydroxy-2-methyl-2-propylamino)thieno[3,2-d]pyrimidin-4-yl 2-thienylmethanone], the melting point was in the range of 126.4 to 127.1 °C.

On to `COC(=O)CNc1nc(C(=O)c2cccs2)c2sccc2n1` [Example 123, Methyl (4-(2-thienylcarbonyl)thieno[3,2-d]pyrimidin-2-ylamino)acetate], for which the melting point fell in the range of 144.6 to 145.2 °C.

For `CC(=O)NNc1nc(C(=O)c2cccs2)c2sccc2n1` [Example 130, Acetic acid 2-(4-(2-thienylcarbonyl)thieno[3,2-d]pyrimidin-2-yl)hydrazide], the melting point is 258.3 to 259 °C.

In turn, `CN(C)C(=O)c1nc(C(=O)c2cccs2)c2sccc2n1` [Example 136, N,N-Dimethyl-4-(2-thienylcarbonyl)thieno[3,2-d]pyrimidin-2-carboxamide] returned a melting point of 173.1 to 174 °C.

`O=C(c1cc2ccccc2o1)c1nc(C(F)(F)F)nc2ccsc12` [Example 15, 2-Benzofuranyl 2-trifluoromethylthieno[3,2-d]pyrimidin-4-ylmethanone]: the melting point lay in the range of 221 to 223 °C.

Values taken from patent publication US6787541B1, “Thieno-and furopyrimidine derivatives as A2A-receptor antagonists” (Vernalis Research Limited, priority 1999, dated 2004).
